Columns and labels:
HeLa cells [1] = test: Transfection of pEGFP-C1 reporter plasmid into HeLa cells, GFP expression by flow cytometry; type: cell-based, human; details: for Transfection efficiency (percentage of transfected cells), HeLa: HeLa cells 48 h after transfection with reporter plasmid, flow cytometry; for Transfection compared with the positive controls: N/P ratio 3, 1:1 mol mixture with DOPE, controls Effectene, Lipofectamine 2000, Fugene
Outline: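 Cationic lipid/DOPE films hydrated in PBS and complexed with pEGFP-C1 plasmid (20 min, room temperature); lipoplexes added to 2×10^4 cells/well seeded the day before (HeLa in RPMI, HEK293 and B16F10 in DMEM, 10% FCS). After two days at 37° C., GFP by flow cytometry as percentage of transfected cells; quadruplicates.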

HEK293 cells [2] = test: Transfection of pEGFP-C1 reporter plasmid into HEK293 cells, GFP expression by flow cytometry; type: cell-based, human
Protocol: (§1) The corresponding cationic lipid (1 mM in methanol) were mixed in different proportions with DOPE (10 mg/mL in chloroform) and the organic solvent removed by evaporation in an oven (37° C.) overnight. The resultant thin films were then hydrated with PBS. The solutions were vortexed (10-20 s) and incubated at ambient temperature for 20 min. Plasmid DNA or siRNA solution (0.04 mg/mL in PBS or another isotonic solution) was subsequently added and the solution vortexed (10-20 s). The lipoplexes were incubated at room temperature for 20 min before being used.
(§2) Human HeLa cells were grown in RPMI supplemented with 4 mM glutamine, 10% FCS and 100 units/ml penicillin/streptomycin (RPMI-CM) until 80% confluence. HEK293 and B16F10 cells were grown in DMEM supplemented with 4 mM glutamine, 10% FCS and 100 units/ml penicillin/streptomycin (DMEM-CM) until 80% confluence. Cells were then suspended using trypsin/EDTA and counted. 2×10^4 cells in 150 μL of media per well were seeded in 96 well plates and incubated overnight. The day afterwards, the different lipoplex formulations were added. Each experiment was performed in quadruplicate, using Effectene® Transfection Reagent (Qiagen), Lipofectamine™ 2000 (Invitrogen) and Fugene (Roche) as positive controls and untreated cells as negative controls. After two days incubation at 37° C. and 5% CO2 (the change of media after transfection was not necessary), the green fluorescent protein (GFP) expression, as a consequence of transfecting the pEGFP-C1, was evidenced using a fluorescent microscope (Leica) and measured by flow cytometry. For the flow cytometry analysis, cells were washed twice with PBS, detached with trypsin/EDTA, harvested with 2% ferum bovine serum (FBS) in PBS, centrifuged and resuspended with 2% FBS in PBS and analyzed using a BD FACSaria flow cytometer. Transfection efficiency was measured as percentage of transfected cells.
(§3) Reagents that obtained greater than 50% transfection were also analyzed against HEK293 and B16F10 cell lines. Transfection results (+ percentages of transfection between 5-25%; ++ percentages of transfection between 25-50%; N.D. not determined). MTT toxicity assay results are indicated between brackets with 100% being cell viability of untreated cells.

B16F10 cells [3] = test: Transfection of pEGFP-C1 reporter plasmid into B16F10 cells, GFP expression by flow cytometry; type: cell-based, mouse
Protocol: as §1, §2, §3

HeLa cells [4] = test: MTT cell viability assay of transfected HeLa cells; type: cell-based, human; details: 100% being cell viability of untreated cells; 24 h after addition of transfection agents
Protocol: as §3
(§4) Twenty-four hours after the addition of transfection agents, cell viability was measured using an MTT cell proliferation assay (LGC Promochem, Middlesex, UK), which was performed according to the manufacturer's instructions. Absorbance was read at 570 nm. […] The comparative data obtained with lipids 28a, 29a, 30a and 31a of the invention, Lipofectamine™ 2000, Fugene and Effectene® Transfection Reagent are shown between brackets in Table 2.

HEK293 cells [5] = test: MTT cell viability assay of transfected HEK293 cells; type: cell-based, human; details: 100% being cell viability of untreated cells; 24 h after addition of transfection agents
Protocol: as §3, §4

B16F10 cells [6] = test: MTT cell viability assay of transfected B16F10 cells; type: cell-based, mouse; details: 100% being cell viability of untreated cells; 24 h after addition of transfection agents
Protocol: as §3, §4

HeLa cells [7] = test: Transfection of fluorescein-labelled siRNA (siGLO) into HeLa cells, flow cytometry; type: cell-based, human; details: 24 h incubation
Protocol: as §1
Cells were suspended using trypsin/EDTA and counted. 2×10^4 cells in 150 μL of RPMI-CM per well were seeded in 96-well plates and incubated overnight. The day afterwards, the different lipoplex formulations formulated with siGLO (fluorescein-labeled siRNA that localizes within cell nuclei (Dharmacon)) and added to the cells. […] After 24 h incubation at 37° C. and 5% CO2 (change of media after transfection was not necessary), the green fluorescence emitted by intracellular siGLO was imaged under microscope. […] For the flow cytometry analysis, cells were washed twice with PBS, detached with trypsin/EDTA, harvested with 2% FBS in PBS, centrifuged and resuspended with 2% FBS in PBS and analyzed using a BD FACSaria flow cytometer.

mice = test: In vivo transfection of luciferase-expressing plasmid (pLux) in mice, luminescence imaging
Protocol: Experiments were performed to transfect a luciferase-expressing plasmid (pLux) by intravenous injection via the vein tail of mice: three transfected with pLux complexed with compound 29a and three (control) with naked pLux. Two days after instillation, firefly luciferin was administrated intraperitoneally and the mice imaged using an IVIS Spectrum.
The mouse depicted on the left was transfected with naked plasmid; the mouse the right was transfected with plasmid complexed with compound 29a. Mice (n=3, per experiment) were anaesthetised and intubated following standard protocols. 16 μg of a luciferase-reporter plasmid were used per mouse. […] Firefly luciferin (15 mg/kg) was administered intraperitoneally to the anesthetized mice 15 min before scanning for luminescence. Imaging was performed on the IVIS Spectrum (Caliper LS) with large binning, open filter for 10 min.

## CCCCCCCCCCCCCCCC(=O)NCCN(CCNC(=O)CCCCCCCCCCCCCCC)C(=O)/C=C\C(=O)N[C@@H](CCCNC(=N)N)C(=O)N[C@@H](CCCNC(=N)N)C(=O)N[C@@H](CCCNC(=N)N)C(N)=O.O=C(O)C(F)(F)F.O=C(O)C(F)(F)F.O=C(O)C(F)(F)F [Compound A3-Sp2-P]
HeLa cells [1]
  Transfection efficiency (percentage of transfected cells), HeLa: 70%
HEK293 cells [2]
  Transfection efficiency (percentage of transfected cells), HEK293: 80%
B16F10 cells [3]
  Transfection efficiency (percentage of transfected cells), B16F10: 69%
HeLa cells [4]
  MTT toxicity assay, cell viability (between brackets), HeLa: 92%
HEK293 cells [5]
  MTT toxicity assay, cell viability (between brackets), HEK293: 96%
B16F10 cells [6]
  MTT toxicity assay, cell viability (between brackets), B16F10: 93%

## CCCCCCCCCCCCCCCC(=O)NCCN(CCNC(=O)CCCCCCCCCCCCCCC)C(=O)CCC(=O)N[C@@H](CCCNC(=N)N)C(=O)N[C@@H](CCCNC(=N)N)C(N)=O.O=C(O)C(F)(F)F.O=C(O)C(F)(F)F [Compound A2-Sp1-P]
HeLa cells [1]
  Transfection efficiency (percentage of transfected cells), HeLa: 85%
  Transfection compared with the positive controls: more effectively than the positive controls
HEK293 cells [2]
  Transfection efficiency (percentage of transfected cells), HEK293: 89%
B16F10 cells [3]
  Transfection efficiency (percentage of transfected cells), B16F10: 74%
HeLa cells [4]
  MTT toxicity assay, cell viability (between brackets), HeLa: 99%
HEK293 cells [5]
  MTT toxicity assay, cell viability (between brackets), HEK293: 97%
B16F10 cells [6]
  MTT toxicity assay, cell viability (between brackets), B16F10: 98%

## CCCCCCCCCCCCCCCC(=O)NCCN(CCNC(=O)CCCCCCCCCCCCCCC)C(=O)/C=C\C(=O)N[C@@H](CCCNC(=N)N)C(=O)N[C@@H](CCCNC(=N)N)C(N)=O.O=C(O)C(F)(F)F.O=C(O)C(F)(F)F [Compound A2-Sp2-P]
HeLa cells [1]
  Transfection efficiency (percentage of transfected cells), HeLa: 86%
  Transfection compared with the positive controls: more effectively than the positive controls
HEK293 cells [2]
  Transfection efficiency (percentage of transfected cells), HEK293: 90%
B16F10 cells [3]
  Transfection efficiency (percentage of transfected cells), B16F10: 78%
HeLa cells [4]
  MTT toxicity assay, cell viability (between brackets), HeLa: 99%
HEK293 cells [5]
  MTT toxicity assay, cell viability (between brackets), HEK293: 98%
B16F10 cells [6]
  MTT toxicity assay, cell viability (between brackets), B16F10: 99%
HeLa cells [7]
  Cells fluorescently labelled after siRNA transfection: over 96%
mice; mice monitored on a daily basis, n=3 per experiment
  Behaviour of mice during the study: behaved normally
mice; mice, intravenous injection via tail vein, 16 μg plasmid per mouse, imaged 48 hours after transfection
  Luminescence after in vivo transfection of pLux: Positive luminescence was detected
mice; mice, intravenous injection via tail vein, 48 hours after transfection
  Location of highest luminescence signal: at the point of injection

## CCCCCCCCCCCCCCCC(=O)NCCN(CCNC(=O)CCCCCCCCCCCCCCC)C(=O)CCC(=O)N[C@@H](CCCNC(=N)N)C(=O)N[C@@H](CCCNC(=N)N)C(=O)N[C@@H](CCCNC(=N)N)C(N)=O.O=C(O)C(F)(F)F.O=C(O)C(F)(F)F.O=C(O)C(F)(F)F [Compound A3-Sp1-P]
HeLa cells [1]
  Transfection efficiency (percentage of transfected cells), HeLa: 75%
HEK293 cells [2]
  Transfection efficiency (percentage of transfected cells), HEK293: 84%
B16F10 cells [3]
  Transfection efficiency (percentage of transfected cells), B16F10: 56%
HeLa cells [4]
  MTT toxicity assay, cell viability (between brackets), HeLa: 93%
HEK293 cells [5]
  MTT toxicity assay, cell viability (between brackets), HEK293: 95%
B16F10 cells [6]
  MTT toxicity assay, cell viability (between brackets), B16F10: 89%
